According to patent US8598145B2, “Mitochondrially delivered anti-cancer compounds” (priority 2008, dated 2013):

What was measured:
Assay in all cases: MTT viability assay (IC50)
[1] = tested on: AE-17; assay type: cell-based, mouse; settings: AE-17, ~60% confluency
Source text: The following cell lines used in this study were obtained from ATCC, unless specified otherwise: Human T lymphoma cells Jurkat, human mesothelioma cells Meso-I, MM-BI, Ist-Mes, Ist-Mes-2 (Pass, H. I. et al. Characteristics of nine newly derived mesothelioma cell lines. Ann. Thorac. Surg. 59, 835-844 (1995)), human breast cancer cells MCF-7 (erbB2-low) and MDA-MB-453 (erbB2-high), human colorectal cells HCT-116, human hepatocarcinoma cells Huh-7, mouse mesothelioma cells AE17 (Jackaman, C. et al. IL-2 intratumoral immunotherapy enhances CD8+ T cells that mediate destruction of tumor cells and tumor-associated vasculature: a novel mechanism for IL-2. J. Immunol. […]
(§1) Toxicity of α-TOS, VE11S (“VES”), MitoVE3S, MitoVE5S, MitoVE7S, MitoVE9S, MitoVE11S (“MitoVES”), MitoVE11AE (“MitoVEAE”), MitoVE11F (“MitoVEF”), MitoVE11M (“MitoVEM”), and VES4TPP towards cancer cells was assessed on the basis of IC50, as detailed in Turanek, J., et al. ((2008). Liposomal formulation of vitamin E analogs as an efficient and selective anti-cancer treatment. Clin. Cancer Res. (submitted)). […]

[2] = tested on: Jurkat; assay type: cell-based, human
Source text: (§2) The following cell lines used in this study were obtained from ATCC, unless specified otherwise: Human T lymphoma cells Jurkat, human mesothelioma cells Meso-I, MM-BI, Ist-Mes, Ist-Mes-2 (Pass, H. I. et al. Characteristics of nine newly derived mesothelioma cell lines. Ann. Thorac. Surg. 59, 835-844 (1995)), human breast cancer cells MCF-7 (erbB2-low) and MDA-MB-453 (erbB2-high), human colorectal cells HCT-116, human hepatocarcinoma cells Huh-7, mouse mesothelioma cells AE17 (Jackaman, C. et al. IL-2 intratumoral immunotherapy enhances CD8+ T cells that mediate destruction of tumor cells and tumor-associated vasculature: a novel mechanism for IL-2. J. Immunol. 171, […] (2003), human non-malignant mesothelial cells Met-5A, […] (Claycomb, W. C. et al. HL-1 cells: a cardiac muscle cell line that contracts and retains phenotypic characteristics of the adult cardiomyocyte. Proc. Natl. Acad. Sci. USA 95, 2979-2984 […]) and H9c2, and the human endothelial-like cells EAhy926 (Edgell, C. J., McDonald, C. C. & Graham, J. B. Permanent cell line expressing human factor VIII-related antigen established by hybridization. Proc. Natl. Acad. Sci. USA 80, 3734-3737 (1983)). Jurkat cells were grown in the RPMI medium while DMEM was used for other malignant cell lines and for Met-5A cells, supplemented with 10% FCS and antibiotics. HL-1 cells, maintained in fibronectin/gelatine-coated dishes, were grown in the Claycomb medium supplemented with noradrenalin (Claycomb, W. C. et al. HL-1 cells: a cardiac muscle cell line that contracts and retains phenotypic characteristics of the adult cardiomyocyte. Proc. Natl. Acad. Sci. USA 95, 2979-2984 […]), EAhy926 cells were grown in complete DMEM supplemented with HAT (Edgell, C. J., McDonald, C. C. & Graham, J. B. Permanent cell line expressing human factor VIII-related antigen established by hybridization. Proc. Natl. Acad. Sci. USA 80, 3734-3737 (1983)). Cells deficient in mtDNA (ρ^0 phenotype) were prepared as detailed in Weber, T. et al., (Mitochondria play a central role in apoptosis induced by α-tocopheryl succinate, an agent with anticancer activity. Comparison with receptor-mediated pro-apoptotic signaling. Biochemistry 42, 4277-4291 (2003)). Acquisition of the ρ^0 phenotype was confirmed by lack of expression by the cells of the mtDNA-encoded cytochrome c oxidase subunit II (COXII not shown). Chinese hamster lung fibroblasts deficient in complex I (B10 cells) (See, B. B. et al. Molecular remedy of complex I defects: rotenone-insensitive internal NADH-quinone oxidoreductase of Saccharomyces cerevisiae mitochondria restores the NADH oxidase activity of complex I-deficient mammalian cells. Proc. Natl. Acad. Sci. USA 95, 9167-9171 (1998)) and complex II (CybL^−/−; B9 cells) (Oostveen, F. G., Au, H. C., Meijer, P. J. & Scheffler, I. E. A Chinese hamster mutant cell line with a defect in the integral membrane protein CII-3 of complex II of the mitochondrial electron transport chain. J. Biol. Chem. 270: 26104-26108 (1995)) as well as the parental cells (B1 cells) (Oostveen, F. G., Au, H. C., Meijer, P. J. & Scheffler, I. E. A Chinese hamster mutant cell line with a defect in the integral membrane protein CII-3 of complex II of the mitochondrial electron transport chain. J. Biol. Chem. 270: 26104-26108 (1995)) were grown in DMEM with 10% FCS, antibiotics, 10 mg/ml glucose and non-essential aminoacids.
as §1

[3] = tested on: Met5A; assay type: cell-based, human; settings: ~60% confluency
Source text: as §2, §1

[4] = tested on: MM-BI; assay type: cell-based, human; settings: ~60% confluency
Source text: as §2, §1

[5] = tested on: Ist-Mes; assay type: cell-based, human; settings: ~60% confluency
Source text: as §2, §1

[6] = tested on: EAhy926; assay type: cell-based, human
Source text: as §2, §1

[7] = tested on: MCF-7; assay type: cell-based, human; settings: MCF-7, ~60% confluency
Source text: as §2, §1

[8] = tested on: Ist-Mes-2; assay type: cell-based, human; settings: Ist-Mes-2, ~60% confluency
Source text: as §2, §1

[9] = tested on: Meso-2; assay type: cell-based, human; settings: Meso-2, ~60% confluency
Source text: as §2, §1

[10] = tested on: HCT-116; assay type: cell-based, human; settings: HCT-116, ~60% confluency
Source text: as §2, §1

[11] = tested on: MDA-MB-453; assay type: cell-based, human; settings: MDA-MB-453, ~60% confluency
Source text: as §2, §1

[12] = Jurkat, treated at 0.5 × 10^6 per ml, MTT viability curves
[13] = Table VI: Jurkat 0.5 × 10^6 per ml, analogs added as EtOH solution, MTT
[14] = EAhy926 treated at 100% confluency (top lines)
[15] = EAhy926 treated at ~50% confluency (bottom lines)

Structure (SMILES) | IC50 [1] | IC50 [2, 12] | IC50 [2, 13] | IC50 [3] | IC50 [4] | IC50 [5] | IC50 [6, 14] | IC50 [6, 15] | IC50 [7] | IC50 [8] | IC50 [9] | IC50 [10] | IC50 [11]
Cc1c(C)c2c(c(C)c1OC(=O)CCC(=O)O)CC[C@@](C)(CCC[C@H](C)CCC[C@H](C)CCCC(C)C)O2 [α-TOS, α-tocopheryl succinate, reference compound] | 33 ± 5 µM | 18 ± 3 µM | 18 ± 3 µM | 69 ± 8 µM | 26 ± 4 µM | 24 ± 5 µM | > 100 µM | 9.5 ± 2.7 µM | 22 ± 4 µM | 21 ± 3 µM | 29 ± 5 µM | 31 ± 6 µM | 28 ± 5 µM
Cc1c(C)c2c(c(C)c1OC(=O)CCC(=O)[O-])CCC(C)(CCCCCCCCCCC[P+](c1ccccc1)(c1ccccc1)c1ccccc1)O2 (centres unmarked) [MitoVE11S] | 3.1 ± 0.7 µM | 0.48 ± 0.1 µM | 0.48 ± 0.1 µM | 21 ± 4 µM | 1.4 ± 0.3 µM | 2.2 ± 0.3 µM | 32 ± 6 µM | 0.7 ± 0.2 µM | 1.9 ± 0.5 µM | 1.1 ± 0.25 µM | 2.4 ± 0.5 µM | 2.8 ± 0.8 µM | 3.3 ± 0.7 µM
